According to patent publication US10155751B2, “Pyrazolyl-substituted heteroaryls and their use as medicaments” (Boehringer Ingelheim International GmbH, priority 2015, dated 2018):
Where two headings read alike, the source gives them in different places.

Key:
[1] = system: SYK dependent basophil degranulation (CD63 surface expression on basophils in whole blood); assay: CD63-assay (cellular assay for SYK-inhibition) in whole blood; assay type: cell-based
Procedure: In this assay, IgE raised against dinitrophenol (DNP) is incubated in whole blood where it binds to the FcεR1 on basophils. […] CD63 normally resides on the intracellular granule membrane within basophils, which upon degranulation, is then expressed on the surface where it can be detected by flow cytometry. Surface expression of CD63 correlates extremely well with the release of histamine from basophils. The CD63 assay has previously been validated as a clinical target engagement biomarker in the Fostamatinib SYK program (Braselmann et al, J. Pharm. Exp. Therap. 319:998-1008, 2006). Heparinized whole blood is mixed gently (vortex mixer) and […] per test aliquoted into a 96 well plate. Anti-DNP (1 mg/ml) is diluted 1:100 with PBS/0.1% HSA to 10 μg/ml (final concentration: 1 μg/mL). Pre-dilute DNP/BSA (5 mg/ml) to a concentration of 60 ng/ml with washing solution. Compounds: […] Reagents are provided from the Basotest® kit. Incubate 10 μl of 10 μg/ml anti DNP and 10 μl of compound with 100 μl whole blood in a 37° C. pre-warmed water bath. After 30 minutes, 20 μl of STIMULATION BUFFER is added to the whole blood samples and vortexed gently. Incubate the samples for 10 min at 37° C. in a water bath. 100 μl of DNP/BSA is added per test to the whole blood. Add 100 μl of the WASHING SOLUTION to a further test tube as a negative control. Add 100 μl of DNP/BSA (final 30 ng/ml) in the compound tubes. All tubes are mixed once more. The samples are incubated for 20 min at 37° C. in a water bath. Stop degranulation by incubating the samples on ice for 5 min. Add 20 μl of STAINING REAGENT to each tube. Vortex and incubate the tubes for 20 min in an ice bath, covered to prevent exposure to light. The whole blood samples are lysed and fixed with 2 ml of pre-warmed (room temperature) 1×LYSING SOLUTION. Vortex and incubate for 10 min at room temperature. Spin down cells (5 min, 250×g, 4° C.). Discard the supernatant. Add 3 ml of WASHING SOLUTION to the tubes. Centrifuge the tubes (5 min, 250×g, 4° C.). Aspirate the supernatant. Add 200 μl WASHING SOLUTION to the cell pellet, vortex. Incubate the tubes in a covered ice bath until analysis. Cells are analysed by flow cytometry using the blue-green excitation light (488 nm argon-ion laser). Acquire data by using fluorescence triggering in the FL2 channel (PE) to gate on basophilic granulocytes expressing high amounts of IgE. This live gating reduces the amount of data and saves memory capacity. Acquire at least 500 basophils per sample. For data evaluation and calculation, the measurement of the negative control (unstimulated blood) was set as 100% control and the measurement of the positive control (DNP/anti-DNP stimulated blood) was set as 0% control. Based on these values the % value for the measurement of each substance concentration was calculated, a concentration-effect curve fitted and an EC50 value calculated using GraphPad Prism version 6.01 for Windows. The EC50 value was calculated using a nonlinear fitting (log(inhibitor) vs. response—variable slope). Normally, the % control values calculated are between 0% and 100% values but may also occur outside these limits in individual cases based on variability or compound characteristics.

[2] = target: Recombinant human Aurora B (amino acids 1-344) (Homo sapiens (Human), UniProt Q96GD4); assay: Aurora B kinase test (ADP Glo); assay type: biochemical
Procedure: The activity of the Aurora B kinase protein was determined using the ADP Glo® Luminescence Kinase test (Promega; V9103X). In this homogeneous test the amount of ADP remaining after the kinase reaction is quantified by a luciferin-luciferase reaction using luminescence. The luminescence signal obtained correlates with the amount of ADP still present and thus correlates with the activity of the protein kinase.
The test compounds were dissolved in 100% DMSO at a concentration of 10 mM and diluted in DMSO to a concentration of 5 mM. Serial Dilution is done in 1:10 steps in 100% DMSO. All further dilutions of the substances were carried out with test buffer (50 mM Hepes, pH 7.5, 10 mM MgCl2, 1 mM EGTA, 60 μM Ultra Pure ATP, 0.01% Brij35, 0.1% BSA, 5 mM 8-Glycerophosphate) until a concentration was reached which was 2.5 times above the final test concentration (final concentration of the compounds: 50 μM to 0.005 nM). 4 μl aliquots of these dilutions were transferred into a 384-well Optiplate (Perkin Elmer, #6007290). His-Aurora B was diluted to 125 nM in the test buffer and 4 μl of this dilution were used in the kinase test (final concentration of Aurora B=50 nM in a total volume of 10 μl). After 15 minutes incubation at room temperature 2 μl of 250 μM substrate ([[…]]; University of Dundee) in test buffer were added to each well and the incubation was continued for a further 60 minutes at room temperature.
Positive controls are the reaction mixtures that contain no test substance; negative controls (blanks) are reaction mixtures that contain no kinase.
After 60 minutes, 10 μl ADP-Glo® solution (ADP-Glo Reagent #V912B Promega) (heated to room temperature) were added to each well and incubation was continued for a further 40. minutes. Then 20 μl Kinase detection mix (Detection Buffer #V913B Promega; Kinase Detection Substrate #V914B Promega) were added and incubated for 40 minutes at room temperature. The plates were read in Envision Luminescence Reader (Perkin-Elmer).
The output file of the reader is a csv file that contains the well number and measured RLU. For data evaluation and calculation, the measurement of the negative control was set as 0% ctrl and the measurement of the positive control was set as 100% ctrl. Based on this values the % value for the measurement of each substance concentration can be calculated using an Assay Explorer software (e.g. Accelrys). Normally, the % ctrl values calculated are between 0% and 100% values but may also occur outside these limits in individual cases based on variability or compound characteristics. The IC50-values were calculated from the % ctrl values using Assay Explorer software. Calculation: [y=(a−d)/(1+(x/c)^b)+d], a=low value, d=high value; x=conc M; c=IC50 M; b=hill; y=% ctrl.

[3] = whole blood, DNP/anti-DNP stimulated basophils, read-out: CD63 assay EC50-value (chapter 5.2)
[4] = read-out: AURB inhibition IC50-value (chapter 5.3)

Recombinant human Aurora B (amino acids 1-344), sequence (Q96GD4 whole entry, the tested form may be a part): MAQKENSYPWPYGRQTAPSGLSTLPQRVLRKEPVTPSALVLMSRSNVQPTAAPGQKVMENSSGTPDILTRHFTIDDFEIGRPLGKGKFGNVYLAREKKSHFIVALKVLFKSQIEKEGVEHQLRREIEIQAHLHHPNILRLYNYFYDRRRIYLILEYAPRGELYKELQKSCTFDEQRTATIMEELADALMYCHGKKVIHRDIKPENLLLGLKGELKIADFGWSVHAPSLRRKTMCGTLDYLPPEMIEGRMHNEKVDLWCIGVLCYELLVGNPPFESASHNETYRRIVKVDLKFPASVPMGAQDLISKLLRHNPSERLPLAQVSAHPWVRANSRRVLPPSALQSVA

SMILES | EC50 [1, 3] [nM] | selectivity ratio IC50(AURB)/IC50(SYK) [2] | IC50 [2, 4] [nM] | EC50 ([1]; read-out: EC50 in CD63-assay) [nM] | IC50 ([2]; read-out: IC50(AURB)) [nM]
Cc1c2c(O[C@H](C)[C@H]3CNC(=O)C3)cc(-c3cnn(CC4CC4)c3)cc2nn1C [Example 8, (R)-4-{(R)-1-[6-(1-Cyclopropylmethyl-1H-pyrazol-4-yl)-2,3-dimethyl-2H-indazol-4-yloxy]-ethyl}-pyrrolidin-2-one] | 47 | 15080 | 21100 | – | –
C[C@@H](Oc1cc(-c2cnn(C3CCC(F)(F)C3)c2)cc2nn(C)c(F)c12)[C@H]1CNC(=O)C1 (stereo partly shown) [Example 7] | 53 | 20154 | 26200 | – | –
Cc1c2c(O[C@H](C)[C@H]3CNC(=O)C3)cc(-c3cnn(C4CC4)c3)cc2nn1C [Example 20, (R)-4-{(R)-1-[6-(1-Cyclopropyl-1H-pyrazol-4-yl)-2,3-dimethyl-2H-indazol-4-yloxy]-ethyl}-pyrrolidin-2-one] | 134 | 13932 | 34800 | – | –
Cc1cc2c(O[C@H](C)[C@H]3CNC(=O)C3)cc(-c3cnn(C(C)(C)C)c3)cn2n1 [example 6.60 on page 587 of WO15017610, reference compound] | 483 | >4850 | > 50000 | 483 | > 50000
Cc1c2c(O[C@H](C)[C@H]3CNC(=O)C3)cc(-c3cnn(C(C)(C)C#N)c3)cc2nn1C [Example 17, 2-(4-{2,3-Dimethyl-4-[(R)-1-((R)-5-oxo-pyrrolidin-3-yl)-ethoxy]-2H-indazol-6-yl}-pyrazol-1-yl)-2-methyl-propionitrile] | 92 | 17241 | 50000 | – | –
CC(C)n1cc(-c2cc(O[C@H](C)[C@H]3CNC(=O)C3)c3c(F)n(C)nc3c2)cn1 [Example 2, (R)-4-{(R)-1-[3-Fluoro-6-(1-isopropyl-1H-pyrazol-4-yl)-2-methyl-2H-indazol-4-yloxy]-ethyl}-pyrrolidin-2-one] | 45 | 23955 | 31100 | – | –
Cc1c2c(O[C@H](C)[C@H]3CNC(=O)C3)cc(-c3cnn(C4CCC4)c3)cc2nn1C [Example 21, (R)-4-{(R)-1-[6-(1-Cyclobutyl-1H-pyrazol-4-yl)-2,3-dimethyl-2H-indazol-4-yloxy]-ethyl}-pyrrolidin-2-one] | 76 | 14442 | 17300 | – | –
Cc1cnn2cc(-c3cnn(C(C)(C)C)c3)nc(O[C@H](C)[C@H]3CNC(=O)C3)c12 [example 5.20 on page 506 of WO15017610, reference compound] | 77 | 810 | 162 | < 150 | 162
Cc1c2c(O[C@H](C)[C@H]3CNC(=O)C3)cc(-c3cnn([C@@H]4CCOC(C)(C)C4)c3)cc2nn1C [Example 9, (R)-4-((R)-1-{6-[1-((R)-2,2-Dimethyl-tetrahydro-pyran-4-yl)-1H-pyrazol-4-yl]-2,3-dimethyl-2H-indazol-4-yloxy}-ethyl)-pyrrolidin-2-one] | 52 | 21219 | 23300 | – | –
C[C@@H](Oc1cc(-c2cnn(C3CC3)c2)cc2nn(C)c(F)c12)[C@H]1CNC(=O)C1 [Example 5, (R)-4-{(R)-1-[6-(1-Cycloprop-yl-1H-pyrazol-4-yl)-3-fluoro-2-methyl-2H-indazol-4-yloxy]-ethyl}-pyrrolidin-2-one] | 52 | 15152 | 50000 | – | –
Cc1c2c(O[C@H](C)[C@H]3CNC(=O)C3)cc(-c3cnn([C@H]4CO[C@@H]5CCCO[C@@H]54)c3)cc2nn1C [Example 10, 4-(1-{6-[(R)-(3S,3aR,7aR)-1-(Hexahydro-furo[3,2-b]pyran-3-yl)-1H-pyrazol-4-yl]-2,3-dimethyl-2H-indazol-4-yloxy}-ethyl)-pyrrolidin-2-one] | 65 | 10312 | 34000 | – | –
Cc1c2c(O[C@H](C)[C@H]3CNC(=O)C3)cc(-c3cnn(CCF)c3)cc2nn1C [Example 11, (R)-4-((R)-1-{6-[1-(2-Fluoro-ethyl)-1H-pyrazol-4-yl]-2,3-dimethyl-2H-indazol-4-yloxy}-ethyl)-pyrrolidin-2-one] | 65 | 20800 | 31200 | – | –
Cc1c2c(O[C@H](C)[C@H]3CNC(=O)C3)nc(-c3c[nH]nc3C(C)(C)C)cc2nn1C [Example 4, (R)-4-{(R)-1-[6-(3-tert-Butyl-1H-pyrazol-4-yl)-2,3-dimeth-yl-2H-pyrazolo[4,3-c]pyridin-4-yloxy]-ethyl}-pyrrolidin-2-one] | 64 | 29636 | 65200 | – | –
Cc1c2c(O[C@H](C)[C@H]3CNC(=O)C3)cc(-c3cnn(C4CC(C)(C)OC4(C)C)c3)cc2nn1C (stereo partly drawn) [Example 16, (R)-4-((R)-1-{2,3-Dimethyl-6-[1-(2,2,5,5-tetramethyl-tetrahydro-furan-3-yl)-1H-pyrazol-4-yl]2H-indazol-4-yloxy}-ethyl)-pyrrolidin-2-one] | 82 | 14323 | 44400 | – | –
Cc1c2c(O[C@H](C)[C@H]3CNC(=O)O3)nc(-c3cnn(C(C)(C)C)c3)cc2nn1C [Example 3, (R)-5-{(R)-1-[6-(1-tert-Butyl-1H-pyrazol-4-yl)-2,3-dimethyl-2H-pyrazolo[4,3-c]pyridin-4-yloxy]-ethyl}-oxazolidin-2-one] | 51 | 15731 | 31500 | – | –
Cc1c2c(O[C@H](C)[C@H]3CNC(=O)C3)cc(-c3cnn(C(C)C)c3)cc2nn1C [Example 18, (R)-4-{(R)-1-[6-(1-Isopropyl-1H-pyrazol-4-yl)-2,3-dimethyl-2H-indazol-4-yloxy]-ethyl}-pyrrolidin-2-one] | 95 | 18323 | 20200 | – | –
